According to US10568978B2, “Radiopharmaceutical synthesis methods” (Lantheus Medical Imaging, Inc., priority 2012, dated 2020):

Key:
Assay type in all cases: physicochemical
[1] = Filter retention: percent recovery of analyte after syringe-pump filtration, HPLC at 295 nm pre- and post-filtration
Description: In particular, compositions comprising BMS-747158-01 and BMS-747159-01 were prepared in water comprising absolute ethanol (4 wt. %) and sodium ascorbate (50 mg/mL; 5 wt. %) then loaded into plastic syringes (Norm-Ject™; 12 mL) and placed onto an automated syringe pump. Select filters were then placed on each respective syringe and the composition pumped through the units in a controlled fashion. In all cases, gravimetric analysis of the solution transfer process was performed in order to monitor efficiency of the liquid handling steps. Subsequent quantitative analysis of filter retention was then performed following HPLC determination of the absolute concentration of each analyte in both the pre- and post-filtered solutions; HPLC analysis with detection at 295 nm was performed according to established methods. The following equation was then utilized to determine the percent recovery for each analyte:
[formula] Note a higher value of percent recovery equates to lower retention of the respective analyte, and thus improved overall filter performance. The analysis described herein captures both the mass of the compound that is retained as well as the volume of liquid that is retained. As no normalization is performed, the analysis thus allows for direct comparison of relevant filter parameters.
The compositions comprising BMS-747158-01 and BMS-747159-01 were passed through a variety of filters, as described herein. Individual filter parameters varied in terms of both membrane and housing composition, overall filter diameter, and in some instances the applied coating (Table 1). Further, effects of both individual analyte concentration as well as the overall rate of filtration were also evaluated.

[2] = Measured log D (relative lipophilicity of analytes); details: relative to BMS-747158-01
[3] = Retention of flurpiridaz F 18 on PVDF, PTFE and RC filters with synthesis modules; details: Siemens Explora GN/LC (manual) and GE TracerLab MX (automated) modules; FIG. 9
From the text: This was particularly surprising since structurally and chemically, the PVDF filter is more similar to the PTFE filter than the RC filter. Further, the data substantiate that use of the RC filter membrane improves recovery of ^18F-bearing radiopharmaceuticals across multiple synthesis module platforms.

With CC(C)(C)n1ncc(OCc2ccc(COCCF)cc2)c(Cl)c1=O [BMS-747158-01] the “retention by filter housing composition” value ([1]; HDPE and PP housings (no aromatic rings), filters of identical diameter, FIG. 5) was “retained lower amounts”, the “retention on PTFE and RC membranes in comparison to PVDF” value ([1]; PTFE and RC filter membranes vs PVDF, FIG. 8) was “retained lower amounts” and the “retention by membrane composition” value ([1]; PVDF membrane vs other membranes, filters of identical diameter, FIG. 4) was “retains the greatest amount”. The “retention after the initial filtration” value ([1]; Pall PVDF filter, initial filtration, FIG. 6) was “retained large amounts”.

In the case of CC(C)(C)n1ncc(OCc2ccc(COCCO)cc2)c(Cl)c1=O [BMS-747159-01], the “lipophilicity (measured log D, relative)” value [2] is reported as “lower inherent lipophilicity”.

For CC(C)(C)n1ncc(OCc2ccc(COCC[18F])cc2)c(Cl)c1=O [flurpiridaz F 18], the “retention on PTFE and RC filters vs PVDF filter” value [3] was “retain far less”.
